For 1 molecule, EC50 results are on record in BindingDB's records for doi:10.1021/acs.jmedchem.6b00709 (University of Berne, 2016).

Structures are written as SMILES.

The nature of this experiment: Inhibition of Aurora A kinase in human HeLa Kyoto cells assessed as induction of defective chromosome alignment during metaphase incubated for 20 hrs.

Consider `CCc1ccc(/N=C2\S/C(=C\c3ccnc(Nc4ccc(C(=O)O)cn4)c3)C(=O)N2C)cc1`, for which the half-maximal effective concentration (EC50) stood at 6 µM.
